In patent US6740521B2, “High-sensitive detection of environmental pollutants” (priority 2001, dated 2004):
Where two headings read alike, the source gives them in different places.

Test system: CHO 2F1813 cells
Type: cell-based, Chinese hamster
[1] = 2F1813 strain compared with SV40-promoter control strain 5K95, FIG. 3 to FIG. 6

Row | Compound | Fluorescence value (β-galactosidase inducing activity) | Induction of the β-galactosidase activity expression | Induction of the β-galactosidase activity expression [1]
1 | [Ni] [Nickel] | 1.3˜18 RU | observed only in the 2F1813 stain | 
2 | [Cd] [Cadmium] |  |  | observed only in the 2F1813 stain
3 | CCCCC(CC)COC(=O)c1ccccc1C(=O)OCC(CC)CCCC (stereo not shown) [Di(ethylhexyl)phthalate] |  |  | observed only in the 2F1813 stain
4 | Clc1ccccc1Cl [o-Dichlorobenzene] |  |  | observed only in the 2F1813 stain
5 | C1COCCO1 [1,4-Dioxane] | 0˜27 RU |  | 
6 | Nonylphenol A |  |  | observed only in the 2F1813 stain
